Results: patent US5200409A, “Composition and use of substituted 1,3-dithiolo-and 1,4-dithiinoquinoxalines as an antimicrobial” (The Dow Chemical Company, priority 1992, dated 1993)
≈ marks a conversion by molar mass, not a printed value. Read-outs that look alike come from different tables or passages of the source.

What was measured:
Bacillus subtilis (Bs) = test: Minimum inhibitory concentration (MIC) in nutrient agar; assay type: cell-based, Bacillus subtilis ATCC 8473
Experimental: (§1) The minimum inhibitory concentration (MIC) for the compounds listed in Table I is determined for 9 bacteria, using nutrient agar: and 7 yeast and fungi, using malt yeast agar. A one percent solution of the test compound is prepared in a mixture of acetone and water. Nutrient agar is prepared at pH 6.8, representing a neutral medium, and at pH 8.2, representing an alkaline medium. The nutrient agars are prepared by adding 23 g of nutrient agar to one-liter of deionized water. In addition, the alkaline medium is prepared by adjusting a 0.04M solution of N-[tris-(hydroxymethyl)methyl]-glycine buffered deionized water with concentrated sodium hydroxide to a pH of […]. Malt yeast agar is prepared by adding 3 g yeast extract and 45 g malt agar per liter of deionized water. The specific agar is dispensed in 30 ml aliquots into 25×200 mm test tubes, capped and autoclaved for 15 minutes at 115° C. The test tubes containing the agar are cooled in a water bath until the temperature of the agar is 48° C. Then, an appropriate amount of the one percent solution of the test compound is added (except in the controls where no compound is added) to the respective test tubes so that the final concentrations are 500, 250, 100, 50, 25, 10, 5, 2.5, 1.0 and zero parts per million of the test compound in the agar, thus having a known concentration of test compound dispersed therein. The contents of the test tubes are then transferred to respective petri plates. After drying for 24 hours, the petri plates containing nutrient agar are inoculated with bacteria and those containing malt yeast agar are inoculated with yeast and fungi.
(§2) The inoculation with bacteria is accomplished by using the following procedure. Twenty-four hour-cultures of each of the bacteria are prepared by incubating the respective bacteria in tubes containing nutrient broth for 24 hours at 30° C. in a shaker. Dilutions of each of the 24 hour-cultures are made so that nine separate suspensions (one for each of the nine test bacteria) are made, each containing 10^8 colony forming units (CFU) per ml of suspension of a particular bacteria. Aliquots of 0.3 ml of each of the bacterial suspensions are used to fill the individual wells of Steer's Replicator. For each microbial suspension, 0.3 ml was used to fill three wells (i.e., three wells of 0.3 ml each) so that for the nine different bacteria, 27 wells are filled. The Steer's Replicator is then used to inoculate both the neutral and alkaline pH nutrient agar petri plates.
(§3) The inoculated petri plates are incubated at 30° C. for 48 hours and then read to determine if the test compound which is incorporated into the agar prevented growth of the respective bacteria.
(§4) Table II lists the bacteria, yeast and fungi used in the MIC test described above along with their respective American Type Culture Collection (ATCC) identification numbers.

[1] = test system: Enterobacter aerogenes (Ea); test: as above; assay type: cell-based, Enterobacter aerogenes ATCC 13048; details: Klebsiella aerogenes, 48 h
Experimental: as §1, §2, §3, §4

Escherichia coli (Ec) = test: as above; assay type: cell-based, Escherichia coli ATCC 11229; details: 48 h
Experimental: as §1, §2, §3, §4

[2] = test system: Klebsiella pneumoniae (Kp); test: as above; assay type: cell-based, Klebsiella pneumoniae ATCC 8308
Experimental: as §1, §2, §3, §4

Proteus vulgaris (Pv) = test: as above; assay type: cell-based, Proteus vulgaris ATCC 881; details: 48 h
Experimental: as §1, §2, §3, §4

[3] = test system: Pseudomonas aeruginosa (PRD-10); test: as above; assay type: cell-based, Pseudomonas aeruginosa ATCC 15442; details: 48 h
Experimental: as §1, §2, §3, §4

[4] = test system: Pseudomonas aeruginosa (Pa); test: as above; assay type: cell-based, Pseudomonas aeruginosa ATCC 10145; details: 48 hours
Experimental: as §1, §2, §3, §4

[5] = test system: Salmonella choleraesuis (Sc); test: as above; assay type: cell-based, Salmonella choleraesuis ATCC 10708; details: Salmonella enterica, 48 h
Experimental: as §1, §2, §3, §4

[6] = test system: Staphylococcus aureus (Sa); test: as above; assay type: cell-based, Staphylococcus aureus ATCC 6538
Experimental: as §1, §2, §3, §4

Aspergillus niger (An) = test: Minimum inhibitory concentration (MIC) in malt yeast agar; assay type: cell-based, Aspergillus niger ATCC 16404; details: malt yeast agar; 30° C.; 72 hours for fungi; read-out: Minimum Inhibitory Concentration, An
Experimental: as §1
(§5) The inoculation with the yeast and fungi is accomplished as follows. Cultures of yeast and fungi are incubated for seven days on malt yeast agar at 30° C. These cultures are used to prepare suspensions by the following procedure. A suspension of each organism is prepared by adding 10 ml of sterile saline and 10 microliters of octylphenoxy polyethoxy ethanol to the agar slant of yeast or fungi. The sterile saline/octylphenoxy polyethoxy ethanol solution is then agitated with a sterile swab to suspend the microorganism grown on the slant. Each resulting suspension is diluted into sterile saline (1 part suspension: 9 parts sterile saline). Aliquots of these dilutions are placed in individual wells of Steer's Replicator and petri plates inoculated as previously described. The petri plates are incubated at 30° C. and read after 48 hours for yeast and 72 hours for fungi.
as §4

Candida albicans (Ca) = test: as above; assay type: cell-based, Candida albicans ATCC 10231; details: malt yeast agar; 30° C.; 48 hours for yeast; read-out: Minimum Inhibitory Concentration, Ca
Experimental: as §1, §5, §4

[7] = test system: Penicillium chrysogenum (Pc); test: as above; assay type: cell-based, Penicillium chrysogenum ATCC 9480; details: malt yeast agar; 30° C.; 72 hours for fungi; read-out: Minimum Inhibitory Concentration, Pc
Experimental: as §1, §5, §4

[8] = test system: Saccharomyces cerevisiae (Sc); test: as above; assay type: cell-based, Saccharomyces cerevisiae ATCC 4105; details: malt yeast agar, 30° C., 48 hours for yeast, read-out: Minimum Inhibitory Concentration, Sc
Experimental: as §1, §5, §4

Trichoderma viride (Tv) = test: as above; assay type: cell-based, Trichoderma viride ATCC 8678; details: read-out: Minimum Inhibitory Concentration, Tv
Experimental: as §1, §5, §4

[9] = test system: Aureobasidium pullulan (Ap); test: as above; assay type: cell-based, Aureobasidium pullulan ATCC 16622; details: malt yeast agar; 30° C.; 48 hours for yeast and 72 hours for fungi; read-out: Minimum Inhibitory Concentration, Ap
Experimental: as §1, §5, §4

Fusarium oxysporum (Fo) = test: as above; assay type: cell-based, Fusarium oxysporum ATCC 48112; details: malt yeast agar; 30° C.; 72 hours for fungi; read-out: Minimum Inhibitory Concentration, Fo
Experimental: as §1, §5, §4

[10] = 48 h, pH 6.8, read-out: Minimum Inhibitory Concentration, Bs
[11] = 48 h, pH 8.2, read-out: Minimum Inhibitory Concentration, Bs
[12] = pH 6.8, read-out: Minimum Inhibitory Concentration, Ea
[13] = pH 8.2, read-out: Minimum Inhibitory Concentration, Ea
[14] = pH 6.8, read-out: Minimum Inhibitory Concentration, Ec
[15] = pH 8.2, read-out: Minimum Inhibitory Concentration, Ec
[16] = 48 h, pH 8.2, read-out: Minimum Inhibitory Concentration, Kp
[17] = pH 6.8, nutrient agar, 30° C., 48 hours, read-out: Minimum Inhibitory Concentration, Kp
[18] = pH 6.8, read-out: Minimum Inhibitory Concentration, Pv
[19] = pH 8.2, read-out: Minimum Inhibitory Concentration, Pv
[20] = pH 6.8, read-out: Minimum Inhibitory Concentration, PRD
[21] = pH 8.2, read-out: Minimum Inhibitory Concentration, PRD
[22] = pH 6.8, read-out: Minimum Inhibitory Concentration, Sc
[23] = pH 8.2, read-out: Minimum Inhibitory Concentration, Sc
[24] = 48 h, pH 8.2, read-out: Minimum Inhibitory Concentration, Sa
[25] = pH 6.8, nutrient agar, 30° C., 48 hours, read-out: Minimum Inhibitory Concentration, Sa
[26] = malt yeast agar, 30° C., 72 hours for fungi

| Compound | MIC (Bacillus subtilis (Bs); [10]) | MIC (Bacillus subtilis (Bs); [11]) | MIC [1, 12] | MIC [1, 13] | MIC (Escherichia coli (Ec); [14]) | MIC (Escherichia coli (Ec); [15]) | MIC [2, 16] | MIC [2, 17] | MIC (Proteus vulgaris (Pv); [18]) | MIC (Proteus vulgaris (Pv); [19]) | MIC [3, 20] | MIC [3, 21] | MIC ([4]; pH 6.8, 30° C.) | MIC ([4]; pH 8.2, 30° C.) | MIC [5, 22] | MIC [5, 23] | MIC (Aspergillus niger (An)) | MIC (Candida albicans (Ca)) | MIC [8] | MIC (Fusarium oxysporum (Fo)) | other results |
| --- | --- | --- | --- | --- | --- | --- | --- | --- | --- | --- | --- | --- | --- | --- | --- | --- | --- | --- | --- | --- | --- |
| N#CC(C#N)=C1Sc2nc3ccccc3nc2S1 [Compound P, 1,3-dithiolo-(4,5-b)-quinoxaline-2-ylidene-propanedinitrile] | > 500 µg/mL | > 500 µg/mL | > 500 µg/mL | > 500 µg/mL | > 500 µg/mL | > 500 µg/mL | > 500 µg/mL | > 500 µg/mL | > 500 µg/mL | > 500 µg/mL | > 500 µg/mL | > 500 µg/mL | > 500 µg/mL | > 500 µg/mL | > 500 µg/mL | > 500 µg/mL | 500 µg/mL (≈ 1860 µM) | > 500 µg/mL | > 500 µg/mL | > 500 µg/mL | MIC [6, 24]: > 500 µg/mL; MIC [6, 25]: > 500 µg/mL; MIC [7]: 500 µg/mL (≈ 1860 µM); MIC (Trichoderma viride (Tv); [26]): > 500 µg/mL; MIC [9]: 500 µg/mL (≈ 1860 µM) |
| COc1ccc2nc3c(nc2c1)SC(C#N)=C(C#N)S3 [J, 7-methoxy-1,4-dithiino-(2,3-b)-quinoxaline-2,3-dicarbonitrile] | – | – | > 500 µg/mL | > 500 µg/mL | > 500 µg/mL | > 500 µg/mL | > 500 µg/mL | > 500 µg/mL | > 500 µg/mL | > 500 µg/mL | > 500 µg/mL | > 500 µg/mL | > 500 µg/mL | > 500 µg/mL | > 500 µg/mL | > 500 µg/mL | 25 µg/mL (≈ 83.8 µM) | 25 µg/mL (≈ 83.8 µM) | < 10 µg/mL | 25 µg/mL (≈ 83.8 µM) | MIC (Bacillus subtilis (Bs); pH 6.8, nutrient agar, 30° C., 48 hours, read-out: Minimum Inhibitory Concentration, Bs): < 10 µg/mL; MIC (Bacillus subtilis (Bs); pH 8.2, nutrient agar, 30° C., 48 hours, read-out: Minimum Inhibitory Concentration, Bs): 25 µg/mL (≈ 83.8 µM); MIC ([6]; 48 h, pH 6.8, read-out: Minimum Inhibitory Concentration, Sa): < 10 µg/mL; MIC ([6]; pH 8.2, nutrient agar, 30° C., 48 hours, read-out: Minimum Inhibitory Concentration, Sa): 25 µg/mL (≈ 83.8 µM); MIC [7]: 25 µg/mL (≈ 83.8 µM); MIC (Trichoderma viride (Tv); 72 h): 100 µg/mL (≈ 335 µM) |
| N#CC(C#N)=C1Sc2nc3ccc(C#N)cc3nc2S1 [S, 6-cyano-1,3-dithiolo-(4,5-b)-quinoxaline-2-ylidene-propanedinitrile] | > 500 µg/mL | > 500 µg/mL | > 500 µg/mL | > 500 µg/mL | > 500 µg/mL | > 500 µg/mL | > 500 µg/mL | > 500 µg/mL | > 500 µg/mL | > 500 µg/mL | > 500 µg/mL | > 500 µg/mL | > 500 µg/mL | > 500 µg/mL | > 500 µg/mL | > 500 µg/mL | 100 µg/mL (≈ 341 µM) | 500 µg/mL (≈ 1700 µM) | 500 µg/mL (≈ 1700 µM) | 500 µg/mL (≈ 1700 µM) | MIC [6, 24]: > 500 µg/mL; MIC [6, 25]: > 500 µg/mL; MIC (Trichoderma viride (Tv); [26]): > 500 µg/mL; MIC [9]: 100 µg/mL (≈ 341 µM) |
